Test results: patent publication US20230348424A1, “HETEROCYCLIC COMPOUNDS AND METHODS OF USE” (Schrödinger, Inc., priority 2022, published 2023)

Biological target: SOS1:KRAS (G12C) interaction (Homo sapiens (Human), UniProt Q07889)
Experiment: SOS1 KRas(G12C) FRET Assay
Type: binding
Settings: 0.5 nM His10-SOS1 (res. 564-1049), 2.5 nM GST-KRAS G12C (res. 1-169), 2 hrs at RT
Method in brief: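 GST-KRAS G12C (res. 1-169) at 2.5 nM and His10-SOS1 (res. 564-1049) at 0.5 nM, final, in PBS with 0.1% BSA, 5 mM MgCl2, 100 mM KF, 5 mM DTT and 0.5% DMSO. After 2 h at RT, FRET read at 665/615 nm and normalized to DMSO and no-SOS1 controls. IC50 by non-linear regression.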

Chain of SOS1:KRAS (G12C) interaction (Q07889 564-1049, stated change not applied): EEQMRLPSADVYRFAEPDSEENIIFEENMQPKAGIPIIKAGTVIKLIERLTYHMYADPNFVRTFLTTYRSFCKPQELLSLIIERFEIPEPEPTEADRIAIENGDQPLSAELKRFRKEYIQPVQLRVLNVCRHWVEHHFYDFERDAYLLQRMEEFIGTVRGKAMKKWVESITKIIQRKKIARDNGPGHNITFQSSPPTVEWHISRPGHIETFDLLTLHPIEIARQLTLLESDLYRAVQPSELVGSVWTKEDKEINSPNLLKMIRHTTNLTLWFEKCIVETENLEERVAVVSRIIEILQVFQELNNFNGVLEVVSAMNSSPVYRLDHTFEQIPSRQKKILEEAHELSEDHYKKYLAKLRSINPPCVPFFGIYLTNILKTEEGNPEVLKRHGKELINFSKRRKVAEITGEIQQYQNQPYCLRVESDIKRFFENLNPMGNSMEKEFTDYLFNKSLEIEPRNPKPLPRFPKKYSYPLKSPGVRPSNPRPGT

| Structure (SMILES) | IC50 [nM] |
| --- | --- |
| C[C@H](NC(=O)c1cn(C2(C(F)F)CC2)c(=O)cc1N[C@H]1[C@@H]2CN(C)C[C@@H]21)c1cccc(C(F)(F)c2ccncc2)c1F [Example 175, N-((S)-1-(3-(difluoro(pyridin-4-yl)methyl)-2-fluorophenyl)ethyl)-1-(1-(difluoromethyl)cyclopropyl)-4-(((1R,5S,6s)-3-methyl-3-azabicyclo[3.1.0]hexan-6-yl)amino)-6-oxo-1,6-dihydropyridine-3-carboxamide] | 13 |
| CC(NC(=O)c1cn(C2(C(F)F)CC2)c(=O)cc1N[C@H]1[C@@H]2CN(C)C[C@@H]21)c1cccc(C(F)(F)c2cocn2)c1F (stereo partly drawn) [Example 176, N-(1-(3-(difluoro(oxazol-4-yl)methyl)-2-fluorophenyl)ethyl)-1-(1-(difluoromethyl)cyclopropyl)-4-(((1R,5S,6s)-3-methyl-3-azabicyclo[3.1.0]hexan-6-yl)amino)-6-oxo-1,6-dihydropyridine-3-carboxamide] | 109 |
| C[C@@H](NC(=O)c1cn(C23CC(C2)C3)c(=O)cc1N[C@H]1[C@@H]2CN(C)C[C@@H]21)c1cccc(C#N)c1F [Example 179, 1-(bicyclo[1.1.1]pentan-1-yl)-N-((R)-1-(3-cyano-2-fluorophenyl)ethyl)-4-(((1R,5S,6s)-3-methyl-3-azabicyclo[3.1.0]hexan-6-yl)amino)-6-oxo-1,6-dihydropyridine-3-carboxamide] | 70.7 |
| C[C@@H](NC(=O)c1cn(C23CC(C2)C3)c(=O)cc1N[C@H]1[C@@H]2CN(C)C[C@@H]21)c1cccc(OC(F)F)c1Cl [Example 180, 1-(bicyclo[1.1.1]pentan-1-yl)-N-((R)-1-(2-chloro-3-(difluoromethoxy)phenyl)ethyl)-4-(((1R,5S,6s)-3-methyl-3-azabicyclo[3.1.0]hexan-6-yl)amino)-6-oxo-1,6-dihydropyridine-3-carboxamide] | 113 |
| Cc1c(C#N)cccc1[C@@H](C)NC(=O)c1cn(C23CC(C2)C3)c(=O)cc1N[C@H]1[C@@H]2CN(C)C[C@@H]21 [Example 181, 1-(bicyclo[1.1.1]pentan-1-yl)-N-((R)-1-(3-cyano-2-methylphenyl)ethyl)-4-(((1R,5S,6s)-3-methyl-3-azabicyclo[3.1.0]hexan-6-yl)amino)-6-oxo-1,6-dihydropyridine-3-carboxamide] | 79.8 |
| C[C@@H](NC(=O)c1cn(C2(C(F)F)CC2)c(=O)cc1NCC12CC(O)(C1)C2)c1cccc(C(F)F)c1F [Example 182, (R)-N-(1-(3-(difluoromethyl)-2-fluorophenyl)ethyl)-1-(1-(difluoromethyl)cyclopropyl)-4-(((3-hydroxybicyclo[1.1.1]pentan-1-yl)methyl)amino)-6-oxo-1,6-dihydropyridine-3-carboxamide] | 33.8 |
| C[C@@H](NC(=O)c1cn(C2(C(F)F)CC2)c(=O)cc1NCC1(F)CN(C)C1)c1cccc(C(F)F)c1F [Example 185, (R)-N-(1-(3-(difluoromethyl)-2-fluorophenyl)ethyl)-1-(1-(difluoromethyl)cyclopropyl)-4-(((3-fluoro-1-methylazetidin-3-yl)methyl)amino)-6-oxo-1,6-dihydropyridine-3-carboxamide] | 30.7 |
| C[C@@H](NC(=O)c1cn(C2(C(F)F)CC2)c(=O)cc1N[C@H]1CN2CCC1(F)CC2)c1cccc(C(F)F)c1F [Example 186, N-((R)-1-(3-(difluoromethyl)-2-fluorophenyl)ethyl)-1-(1-(difluoromethyl)cyclopropyl)-4-(((S)-4-fluoroquinuclidin-3-yl)amino)-6-oxo-1,6-dihydropyridine-3-carboxamide] | 27.5 |
| C[C@@H](NC(=O)c1cn(C2(C(F)F)CC2)c(=O)cc1N[C@@H]1CN2CCC1(F)CC2)c1cccc(C(F)F)c1F [Example 187, N-((R)-1-(3-(difluoromethyl)-2-fluorophenyl)ethyl)-1-(1-(difluoromethyl)cyclopropyl)-4-(((R)-4-fluoroquinuclidin-3-yl)amino)-6-oxo-1,6-dihydropyridine-3-carboxamide] | 22.3 |
| C[C@@H](NC(=O)c1cn(C2(C(F)F)CC2)c(=O)cc1NC[C@@H]1CCCN1C)c1cccc(C(F)F)c1F [Example 188, N-((R)-1-(3-(difluoromethyl)-2-fluorophenyl)ethyl)-1-(1-(difluoromethyl)cyclopropyl)-4-((((S)-1-methylpyrrolidin-2-yl)methyl)amino)-6-oxo-1,6-dihydropyridine-3-carboxamide] | 41.3 |
| C[C@@H](NC(=O)c1cn(C23CC(C2)C3)c(=O)cc1NC12CC(N)(C1)C2)c1cccc(C(F)F)c1F [Example 189, (R)-4-((3-aminobicyclo[1.1.1]pentan-1-yl)amino)-1-(bicyclo[1.1.1]pentan-1-yl)-N-(1-(3-(difluoromethyl)-2-fluorophenyl)ethyl)-6-oxo-1,6-dihydropyridine-3-carboxamide] | 16.3 |
| C[C@@H](NC(=O)c1cn(C23CC(C2)C3)c(=O)cc1N)c1cccc(C(F)F)c1F [Example 190, (R)-4-amino-1-(bicyclo[1.1.1]pentan-1-yl)-N-(1-(3-(difluoromethyl)-2-fluorophenyl)ethyl)-6-oxo-1,6-dihydropyridine-3-carboxamide] | 315 |
| CC(Nc1cc(=O)n(C2(C(F)F)CC2)cc1C(=O)N[C@H](C)c1cccc(C(F)F)c1F)C1(CO)CC1 (stereo partly drawn) [Example 191, N-((R)-1-(3-(difluoromethyl)-2-fluorophenyl)ethyl)-1-(1-(difluoromethyl)cyclopropyl)-4-((1-(1-(hydroxymethyl)cyclopropyl)ethyl)amino)-6-oxo-1,6-dihydropyridine-3-carboxamide] | 140 |
| C[C@@H](NC(=O)c1cn(C23COC(C2)C3)c(=O)cc1N[C@H]1[C@@H]2CN(C)C[C@@H]21)c1cccc(C(F)F)c1F [Example 192] | 12.9 |
| C[C@@H](NC(=O)c1cn(C23CC(C2)C3)c(=O)cc1N[C@H]1[C@@H]2CN(C)C[C@@H]21)c1cccc(C(F)(F)F)c1F [Example 205, 1-(bicyclo[1.1.1]pentan-1-yl)-N-((R)-1-(2-fluoro-3-(trifluoromethyl)phenyl)ethyl)-4-(((1R,5S,6s)-3-methyl-3-azabicyclo[3.1.0]hexan-6-yl)amino)-6-oxo-1,6-dihydropyridine-3-carboxamide] | 26.6 |
| C[C@@H](NC(=O)c1cn(C2C(F)(F)C23CC3)c(=O)cc1N[C@H]1[C@@H]2CN(C)C[C@@H]21)c1cccc(C(F)F)c1F (stereo partly drawn) [Example 206, N-((R)-1-(3-(difluoromethyl)-2-fluorophenyl)ethyl)-1-(2,2-difluorospiro[2.2]pentan-1-yl)-4-(((1R,5S,6s)-3-methyl-3-azabicyclo[3.1.0]hexan-6-yl)amino)-6-oxo-1,6-dihydropyridine-3-carboxamide] | 137 |
| C[C@@H](NC(=O)c1cn(C2CCC2)c(=O)cc1N[C@H]1[C@@H]2CN(C)C[C@@H]21)c1cccc(C(F)(F)F)c1F [Example 207, 1-cyclobutyl-N-((R)-1-(2-fluoro-3-(trifluoromethyl)phenyl)ethyl)-4-(((1R,5S,6s)-3-methyl-3-azabicyclo[3.1.0]hexan-6-yl)amino)-6-oxo-1,6-dihydropyridine-3-carboxamide] | 9.3 |
| C[C@@H](NC(=O)c1cn(C23CC(C2)C3)c(=O)cc1N[C@@H]1[C@@H]2C[C@H]1CN(C)C2)c1cccc(C(F)F)c1F [Example 208, 1-(bicyclo[1.1.1]pentan-1-yl)-N-((R)-1-(3-(difluoromethyl)-2-fluorophenyl)ethyl)-4-(((1R,5S,6s)-3-methyl-3-azabicyclo[3.1.1]heptan-6-yl)amino)-6-oxo-1,6-dihydropyridine-3-carboxamide] | 13 |
| C[C@@H](NC(=O)c1cn(C23CC(C2)C3)c(=O)cc1N[C@H]1[C@@H]2C[C@H]1CN(C)C2)c1cccc(C(F)F)c1F [Example 209, 1-(bicyclo[1.1.1]pentan-1-yl)-N-((R)-1-(3-(difluoromethyl)-2-fluorophenyl)ethyl)-4-(((1R,5S,6r)-3-methyl-3-azabicyclo[3.1.1]heptan-6-yl)amino)-6-oxo-1,6-dihydropyridine-3-carboxamide] | 63.4 |
| C[C@@H](NC(=O)c1cn([C@H]2CCC2(F)F)c(=O)cc1N[C@H]1[C@@H]2CC[C@H]1CN(C)C2)c1cccc(C(F)F)c1F [Example 210, 1-((S)-2,2-difluorocyclobutyl)-N-((R)-1-(3-(difluoromethyl)-2-fluorophenyl)ethyl)-4-(((1R,5S,8r)-3-methyl-3-azabicyclo[3.2.1]octan-8-yl)amino)-6-oxo-1,6-dihydropyridine-3-carboxamide] | 4.3 |
| C[C@@H](NC(=O)c1cn([C@H]2CCC2(F)F)c(=O)cc1N[C@@H]1[C@@H]2CC[C@H]1CN(C)C2)c1cccc(C(F)F)c1F [Example 211, 1-((S)-2,2-difluorocyclobutyl)-N-((R)-1-(3-(difluoromethyl)-2-fluorophenyl)ethyl)-4-(((1R,5S,8s)-3-methyl-3-azabicyclo[3.2.1]octan-8-yl)amino)-6-oxo-1,6-dihydropyridine-3-carboxamide] | 29.4 |
| C[C@@H](NC(=O)c1cn([C@@H]2CCC2(F)F)c(=O)cc1N[C@@H]1[C@@H]2CC[C@H]1CN(C)C2)c1cccc(C(F)F)c1F [Example 212, 1-((R)-2,2-difluorocyclobutyl)-N-((R)-1-(3-(difluoromethyl)-2-fluorophenyl)ethyl)-4-(((1R,5S,8s)-3-methyl-3-azabicyclo[3.2.1]octan-8-yl)amino)-6-oxo-1,6-dihydropyridine-3-carboxamide] | 38.2 |
| C[C@@H](NC(=O)c1cn([C@@H]2CCC2(F)F)c(=O)cc1N[C@H]1[C@@H]2CC[C@H]1CN(C)C2)c1cccc(C(F)F)c1F [Example 213, 1-((R)-2,2-difluorocyclobutyl)-N-((R)-1-(3-(difluoromethyl)-2-fluorophenyl)ethyl)-4-(((1R,5S,8r)-3-methyl-3-azabicyclo[3.2.1]octan-8-yl)amino)-6-oxo-1,6-dihydropyridine-3-carboxamide] | 149 |
